Test results taken from patent US10966970B2, “Fused tricyclic compounds and uses thereof in medicine” (SUNSHINE LAKE PHARMA CO., LTD., priority 2017, dated 2021).

Legend:
[1] = system: HBV DNA replication; assay: Inhibition of HBV virus replication (HBV DNA in supernatant, qPCR); type: cell-based; settings: Hepatitis B virus, 240 h; HepG2.2.15 cells, 10 days treatment, supernatant HBV DNA by qPCR
Experimental: (§1) The chromosomes of HepG2.2.15 cells (SELLS, PNAS, 1987 and SELLS, JV, 1988) integrate the complete HBV genome and stably express viral RNA and viral proteins. HepG2.2.15 cells are able to secrete mature HBV particles and HBsAg into the culture medium. Viral particle DNA and HBsAg secreted by HepG 2.2.15 cells can be quantified by qPCR and ELISA methods, and the effects of the compound on virus replication and HBsAg secretion are thus examined.
(§2) HepG 2.2.15 Cells (8,000 per well) were seeded into 96-well cell culture plates in duplicate and cultured for 3 days until the cells grew to fill in pores. Cells were treated with 4-fold serial diluted compound solution for 10 days, and the compound solution was exchanged once every other day, the final concentration of DMSO in all wells was 0.5% and DMSO was used as a drug-free control. On the eleventh day, the supernatant was collected for quantitative detection of HBV DNA.
qPCR method was used for detection of viral genomic DNA, HBV primers were as follows: HBV-For-202, […]; HBV-Rev-315, […].
Using the SY BR Premix Ex Taq II—Takara DRR081S kit, 1 ≈L of the cell culture supernatant was used as a template, a plasmid containing the HBV genome was used for plotting a standard curve, and virus copy number was calculated using the standard curve. Concentration-virus copy number was treated with Graphpad Prism 5 software and the IC50 of inhibition of virus replication by compounds was calculated by a four-parameter nonlinear regression model.

[2] = system: HBsAg secretion; assay: Inhibition of HBsAg secretion (ELISA); type: cell-based, HBV; settings: Hepatitis B virus, HepG2.2.15, 240 h, read-out: HbsAg IC50 (nM)
Experimental: as §1
as §2, with “HBsAg.” for “HBV DNA.”
The level of HBsAg secreted by the cells after treatment with the compound was detected by ELISA. The method used a hepatitis B surface antigen diagnostic kit (Shanghai K ehua Biotechnology Co., Ltd. 510910113). 25 ≈L of the supernatant to be examined (diluted to 75 ≈L in PBS) was added to each well of the ELISA plate, and a kit-positive control and a negative control were set. The ELISA plates were blocked with mounting paper and incubated at 37 eC for 60 minutes. The ELISA plate was took out, and the mounting paper was removed, then 50 ≈L of enzyme conjugate was added into each well. After shaking for 10 seconds, the ELISA plates were blocked with mounting paper and incubated at 37 eC for 30 minutes. The ELISA plate was took out, and the mounting paper was removed, and the ELISA plate was repeated washing five times: liquid in the wells was discard each time; the wells was filled with washing solution, then stood for 60 seconds and spined dry; and liquid residue on blotting paper was patted dry. After the washing was completed, to all wells was immediately added a mixture of freshly prepared developer A and developer B: 100 ≈L per well. After shaking for 10 seconds on oscillator, the ELISA plates were blocked with mounting paper and incubated at 37 eC for 30 minutes. To all wells were added 50 ≈L of stop solution. Data were read at a wavelength of 450 nm on an Envision plate reader. Concentration-HBsAg OD450 value was treated with Graphpad Prism 5 software and the IC50 of inhibition of HBsAg secretion by compounds was calculated by a four-parameter nonlinear regression model.

`COCCCOc1cc2c(cc1-c1ccco1)-c1cc(=O)c(C(=O)O)cn1C(C(C)C)C2` (centres unmarked) [Example 11, 10-(furan-2-yl)-6-isopropyl-9-(3-methoxypropoxy)-2-oxo-6,7-dihydro-2H-pyrido[2,1-a]isoquinoline-3-carboxylic Acid] showed an IC50 [1] of 1.9 nM and an IC50 [2] of 1.6 nM.
In the case of `COCCCOc1cc2c(cc1C(C)=O)-c1cc(=O)c(C(=O)O)cn1C(C(C)C)C2` (centres unmarked) [Example 6, 10-acetyl-6-isopropyl-9-(3-methoxypropoxy)-2-oxo-6,7-dihydro-2H-pyrido[2,1-a]isoquinoline-3-carboxylic Acid], the IC50 [1] is reported as 3.02 nM and the IC50 [2] is reported as 3.63 nM.
In the case of `COCCCOc1cc2c(cc1-c1ncco1)-c1cc(=O)c(C(=O)O)cn1C(C(C)C)C2` (centres unmarked) [Example 10, 6-isopropyl-9-(3-methoxypropoxy)-10-(oxazol-2-yl)-2-oxo-6,7-dihydro-2H-pyrido[2,1-a]isoquinoline-3-carboxylic Acid], the IC50 [1] is reported as 7.29 nM and the IC50 [2] is reported as 10.5 nM.
`COc1cc2c(cc1-c1cccs1)CC(C(C)C)n1cc(C(=O)O)c(=O)cc1-2` (centres unmarked) [Example 17, 6-isopropyl-10-methoxy-2-oxo-9-(thiophen-2-yl)-6,7-dihydro-2H-pyrido[2,1-a]isoquinoline-3-carboxylic Acid] was tested, and the IC50 [1] was 3.6 nM and the IC50 [2] was 2.14 nM.
Compound `COc1cc2c(cc1-c1ncc(Br)s1)CC(C(C)C)n1cc(C(=O)O)c(=O)cc1-2` (centres unmarked) [Example 80, 9-(5-bromothiazol-2-yl)-6-isopropyl-10-methoxy-2-oxo-6,7-dihydro-2H-pyrido[2,1-a]isoquioline-3-carboxlic Acid] has an IC50 [1] of 2.57 nM and an IC50 [2] of 2.16 nM.
Compound `CC(C)C1Cc2cc(OCCC3CC3)c(-c3nccs3)cc2-c2cc(=O)c(C(=O)O)cn21` (centres unmarked) [Example 22, 9-(2-cyclopropylethoxy)-6-isopropyl-2-oxo-10-(thiazol-2-yl)-6,7-dihydro-2H-pyrido[2,1-a]isoquinoline-3-carboxylic Acid] has an IC50 [1] of 0.84 nM and an IC50 [2] of 0.65 nM.
Work on `CCOCc1cc2c(cc1OCCCOC)CC(C(C)C)n1cc(C(=O)O)c(=O)cc1-2` (centres unmarked) [Example 7, 10-(ethoxymethyl)-6-isopropyl-9-(3-methoxypropoxy)-2-oxo-6,7-dihydro-2H-pyrido[2,1-a]isoquinoline-3-carboxylic Acid] yielded an IC50 [1] of 8.16 nM and an IC50 [2] of 13.5 nM.
`COCCCOc1cc2c(cc1-c1ccccn1)-c1cc(=O)c(C(=O)O)cn1C(C(C)C)C2` (centres unmarked) [Example 67, 6-isopropyl-9-(3-methoxypropoxy)-2-oxo-10-(pyridin-2-yl)-6,7-dihydro-2H-pyrido[2,1-a]isoquinoline-3-carboxylic Acid] gave an IC50 [1] of 4.36 nM and an IC50 [2] of 7.77 nM.
For `COCCCOc1cc2c(cc1-c1nccs1)-c1cc(=O)c(C(=O)O)cn1C(C(C)C)C2` (centres unmarked) [Example 9, 6-isopropyl-9-(3-methoxypropoxy)-2-oxo-10-(thiazol-2-yl)-6,7-dihydro-2H-pyrido[2,1-a]isoquinoline-3-carboxylic Acid], the IC50 [1] was 0.18 nM and the IC50 [2] was 0.25 nM.
Compound `COc1cc2c(cc1-c1ccc(Cl)s1)CC(C(C)C)n1cc(C(=O)O)c(=O)cc1-2` (centres unmarked) [Example 79, 9-(5-chlorothiophen-2-yl)-6-isopropyl-10-methoxy-2-oxo-6,7-dihydro-2H-pyrido[2,1-a]isoquinoline-3-carboxylic Acid] has an IC50 [1] of 2.01 nM and an IC50 [2] of 2.95 nM.
Compound `COCCCOc1cc2c(cc1-c1cccs1)-c1cc(=O)c(C(=O)O)cn1C(C(C)C)C2` (centres unmarked) [Example 15, 6-isopropyl-9-(3-methoxypropoxy)-2-oxo-10-(thiophen-2-yl)-6,7-dihydro-2H-pyrido[2,1-a]isoquinoline-3-carboxylic Acid] has an IC50 [1] of 0.39 nM and an IC50 [2] of 0.77 nM.
In the case of `CC(=O)c1cc2c(cc1N1CCCC1)CC(C(C)C)n1cc(C(=O)O)c(=O)cc1-2` (centres unmarked) [Example 30, 10-acetyl-6-isopropyl-2-oxo-9-(pyrrolidin-1-yl)-6,7-dihydro-2H-pyrido[2,1-a]isoquinoline-3-carboxylic Acid], the IC50 [1] is reported as 7.68 nM and the IC50 [2] is reported as 7.83 nM.
`C#CCOC(=O)c1cc2c(cc1OCCCOC)CC(C(C)C)n1cc(C(=O)O)c(=O)cc1-2` (centres unmarked) [Example 36, 6-isopropyl-9-(3-methoxypropoxy)-2-oxo-10-((prop-2-yn-1-yloxy)carbonyl)-6,7-dihydro-2H-pyrido[2,1-a]isoquinoline-3-carboxylic Acid] was tested, and the IC50 [1] was 2.55 nM and the IC50 [2] was 4.22 nM.
